For data set [1], the target named is T1, α5β3γ2 GABAA receptors (Ltk cells) (Homo sapiens, UniProt P18507+P31644).
T1 construct: membranes
Description: Binding activity on GABAAR: inhibition of [3H]Ro15-1788 binding. As to the method:
Tissue culture and Membrane Preparation: The binding was performed on Ltk cells stably expressing GABAA receptors: α1β1γ2, α2β3γ2, α3β3γ2 and α5β3γ2 (provided by Merck Co., NJ, USA). Cells were seeded in 100 mm culture plates in DMEM/F12 medium containing 10% serum and antibiotics in 5% CO2 and allowed to grow for 1-2 days. GABAAR expression was then induced by dexamethasone as follows: 0.5 μM for 1 day for α5 containing and 2 μM for 3 days for α1, α2 and α3 containing GABAARs. After induction, cells were collected by scraping into Dulbecco's Phosphate buffered saline (DPBS, pH 7.4, Invitrogen, Carlsbad, Calif., USA) and centrifuged at 150×g for 10 min. The pellet was washed twice by re-suspension and centrifugation. The cell pellets from at least 5 different preps were combined, suspended in the binding assay buffer (50 mM KH2PO4; 1 mM EDTA; 0.2 M KCl, pH 7.4) and membranes prepared by sonication (3-5 times, 30 sec) using Branson Sonifier 150 (G. Heinmann, Germany). Protein content was determined using BCA assay (Bio-Rad Labs, Reinach, Switzerland) with Bovine Serum Albumin (Sigma Aldrich, St. Louis, Mo., USA) as the standard. Aliquots were prepared and stored at −20° C. for further use in binding assays.
Ligand Binding: Saturation binding curves were obtained by incubating membranes with increasing concentrations (0.01-8 nM) of [^3H]Ro15-1788 (Flumazepil, 75-85 Ci/mmol, PerkinElmer, MA, USA), with nonspecific binding measured in the presence of 10 μM diazepam.
All binding assays were performed for 1 h at 4° C. in assay buffer. The total assay volume was 0.5 ml containing 0.2 mg/ml protein for α5 and 0.4 mg/ml for α1, α2, and α3 containing GABAAR membranes. Incubations were terminated by filtration through GF/B filters using a 24-Cell Harvestor (Brandel, Gaithersburg, Md., USA) followed by 3 washes with ice-cold assay buffer. Filters were transferred to scintillation vials, 5 ml scintillation liquid added, vortex-mixed and kept in dark. Next day, radioactivity was obtained using a scintillation counter (Beckman Coulter, Brea, Calif., USA). All assays were performed in triplicate.
Data Analyses: Saturation and inhibition curves were obtained using GraphPad Prism software (GraphPad Software, Inc., CA, USA).

For another data set, the target named is T2, GABAA receptors (α5β2γ2) (Homo sapiens, UniProt P18507+P31644).
T2 construct: expressed in transfected cells
T2 sequence (P31644 32-462): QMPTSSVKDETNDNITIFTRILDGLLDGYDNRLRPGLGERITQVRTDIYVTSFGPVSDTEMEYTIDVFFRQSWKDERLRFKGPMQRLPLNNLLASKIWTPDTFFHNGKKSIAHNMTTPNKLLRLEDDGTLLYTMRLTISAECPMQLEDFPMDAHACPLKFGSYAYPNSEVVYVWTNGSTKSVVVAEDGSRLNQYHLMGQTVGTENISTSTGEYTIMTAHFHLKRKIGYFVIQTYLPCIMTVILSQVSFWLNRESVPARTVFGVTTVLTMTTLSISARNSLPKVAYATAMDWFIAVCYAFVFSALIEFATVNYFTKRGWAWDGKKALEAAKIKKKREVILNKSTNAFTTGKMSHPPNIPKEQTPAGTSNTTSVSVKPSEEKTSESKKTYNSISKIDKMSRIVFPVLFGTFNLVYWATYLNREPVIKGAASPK
T2 sequence (P47870 25-512 partner limits assumed): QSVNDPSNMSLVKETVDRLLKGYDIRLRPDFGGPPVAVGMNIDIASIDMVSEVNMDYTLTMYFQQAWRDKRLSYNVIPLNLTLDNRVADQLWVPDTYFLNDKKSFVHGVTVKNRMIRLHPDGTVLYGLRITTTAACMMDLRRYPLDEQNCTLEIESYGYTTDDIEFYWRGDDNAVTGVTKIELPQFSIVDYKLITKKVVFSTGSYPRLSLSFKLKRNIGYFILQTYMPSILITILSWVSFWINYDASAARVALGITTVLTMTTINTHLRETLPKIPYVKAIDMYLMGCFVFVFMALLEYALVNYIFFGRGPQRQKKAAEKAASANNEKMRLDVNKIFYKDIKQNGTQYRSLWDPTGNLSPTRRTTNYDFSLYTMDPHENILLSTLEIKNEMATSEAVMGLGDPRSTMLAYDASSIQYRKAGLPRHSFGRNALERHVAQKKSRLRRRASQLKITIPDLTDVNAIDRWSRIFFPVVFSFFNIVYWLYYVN
T2 sequence (P18507 40-475): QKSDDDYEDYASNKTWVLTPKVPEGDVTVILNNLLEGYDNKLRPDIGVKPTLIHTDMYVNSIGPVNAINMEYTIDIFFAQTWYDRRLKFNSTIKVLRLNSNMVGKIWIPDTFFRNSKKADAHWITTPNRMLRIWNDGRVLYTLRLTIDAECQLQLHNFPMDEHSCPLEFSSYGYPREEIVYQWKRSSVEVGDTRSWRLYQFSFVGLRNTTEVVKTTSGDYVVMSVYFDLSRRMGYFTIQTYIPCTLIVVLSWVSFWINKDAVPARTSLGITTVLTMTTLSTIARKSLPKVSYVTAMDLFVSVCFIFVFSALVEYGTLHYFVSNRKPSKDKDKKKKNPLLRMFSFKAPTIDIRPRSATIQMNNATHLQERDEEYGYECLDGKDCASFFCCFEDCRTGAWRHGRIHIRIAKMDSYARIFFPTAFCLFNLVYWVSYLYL
The data set can be described thus: Positive allosteric modulator activity: potentiation of EC20 GABA current in oocytes. It is filed as cell-based. Conditions: read-out: GABA α5 functional potentiation. On the procedure: On day 1, 1 ng/32 nL of GABAA α5β2γ2 cDNA was injected into one oocyte. Test starts on day 2. The cDNA injected to the oocytes was a mix of alpha, beta and gamma, their ratio is 1:1:10 (by weight) and the total weight of the mixed 3 subunits to be injected in one oocyte was 1 ng in 32 nl volume. The injected oocytes can also be tested on day 3. In such case, the cDNA amount injected to the oocytes should be reduced by 20%.
1). 8 oocytes were placed in 8 chambers of OpusXpress and superfused with Modified Barth's Saline (MBS) at 3 mL/min. Glass electrodes back-filled with 3M KCl (0.5-3 megaohms) were used.
1). Repeat the above steps 1), 2) and 3) in the control test.
2). […] Divide Itest by IGABA to obtain potentiation (%).
3). Discard all tested oocytes, new oocytes were used and the above steps 1) and 2) were repeated to test second concentration of the same compound. Each oocyte was used for only one concentration test for a single test compound. The steps were repeated for other test compounds.

The target in another data set is T3, GABAA α5 receptor (Rattus norvegicus, UniProt P19969).
T3 construct: from tissue
T3 sequence (P19969 32-464 limits assumed): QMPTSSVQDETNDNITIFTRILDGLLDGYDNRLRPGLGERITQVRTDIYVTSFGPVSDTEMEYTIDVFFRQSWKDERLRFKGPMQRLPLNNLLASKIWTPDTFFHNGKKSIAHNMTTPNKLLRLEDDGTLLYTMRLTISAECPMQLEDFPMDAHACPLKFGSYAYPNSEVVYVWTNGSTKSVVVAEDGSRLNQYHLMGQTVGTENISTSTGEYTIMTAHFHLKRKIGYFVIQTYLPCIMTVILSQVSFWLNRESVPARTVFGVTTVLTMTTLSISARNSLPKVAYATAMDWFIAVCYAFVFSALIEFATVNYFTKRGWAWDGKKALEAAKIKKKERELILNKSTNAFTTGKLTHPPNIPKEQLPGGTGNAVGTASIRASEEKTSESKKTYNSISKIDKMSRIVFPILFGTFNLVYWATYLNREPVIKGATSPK
The data set can be described thus: GABAA α5 receptor occupancy in vivo with Ro 15-4513 tracer. The arrangement: species or system Long Evans rats. An excerpt:
Food and water were available ad libitum.

T1 sequence (P31644 32-462): as the sequence (P31644 32-462) above
T1 sequence (P28472 26-473 partner): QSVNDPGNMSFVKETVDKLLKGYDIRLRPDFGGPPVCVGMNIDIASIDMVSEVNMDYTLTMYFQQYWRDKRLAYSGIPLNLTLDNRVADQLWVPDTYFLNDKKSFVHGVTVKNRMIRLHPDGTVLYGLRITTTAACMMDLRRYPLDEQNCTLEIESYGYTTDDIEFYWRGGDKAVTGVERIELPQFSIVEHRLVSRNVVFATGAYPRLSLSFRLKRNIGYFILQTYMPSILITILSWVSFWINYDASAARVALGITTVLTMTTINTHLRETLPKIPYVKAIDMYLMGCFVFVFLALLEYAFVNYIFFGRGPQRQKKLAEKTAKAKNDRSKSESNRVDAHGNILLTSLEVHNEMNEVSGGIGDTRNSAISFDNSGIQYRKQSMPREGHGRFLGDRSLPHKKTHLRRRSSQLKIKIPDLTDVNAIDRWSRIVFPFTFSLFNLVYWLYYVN
T1 sequence (P18507 40-475): as the sequence (P18507 40-475) above

The Ki is a dissociation constant, usually derived from enzyme kinetics or from competition with a known ligand. In data set [1], `COc1ccc2c(c1)-c1nnc(COCc3cccnc3)n1Cc1c(-c3noc(C(C)C)n3)ncn1-2` [Compound 203] had a Ki of under 99 nM. Further, the activation at 0.1 µM at GABAA receptors (α5β2γ2) was in the range of 20 to 49%.

In the case of `C#Cc1ncn2c1Cn1c(COc3ccccc3)nnc1-c1cc(Cl)ccc1-2` [Compound 205], the Ki in data set [1] was under 99 nM. Further, on GABAA receptors (α5β2γ2), the activation at 0.1 µM was in the range of 20 to 49%.

As to `COc1ccc2c(c1)-n1nnc(Cc3ccccc3)c1Cc1c(C#N)ncn1-2` [Compound 207], the Ki in data set [1] is under 99 nM. The activation at 0.1 µM at GABAA receptors (α5β2γ2) fell in the range of 20 to 49%.

In the case of `COc1ccc2c(c1)-n1nnc(Cc3cccnc3)c1Cc1c(C#N)ncn1-2` [Compound 210], the Ki in data set [1] is under 99 nM. The activation at 0.1 µM at GABAA receptors (α5β2γ2) was in the range of 20 to 49%.

For `COc1ccc2c(c1)-n1nnc(COc3ccc(F)cc3)c1Cc1c(C#N)ncn1-2` [Compound 222], the Ki in data set [1] was under 99 nM. In addition, at GABAA receptors (α5β2γ2), the activation at 0.1 µM lay in the range of 20 to 49%.

Regarding `COc1ccc2c(c1)-n1nnc(COc3ccccc3)c1Cc1c(C#N)ncn1-2` [Compound 224], the Ki in data set [1] was under 99 nM. Also, at GABAA receptors (α5β2γ2), the activation at 0.1 µM lay in the range of 20 to 49%.

Turning to `COc1ccc2c(c1)-n1nnc(COc3cccc(Br)c3)c1Cc1c(C#N)ncn1-2` [Compound 225], the Ki in data set [1] is under 99 nM. In addition, the activation at 0.1 µM on GABAA receptors (α5β2γ2) is 20 to 49%.

For `N#Cc1ncn2c1Cc1c(COc3ccccc3)nnn1-c1cc(Cl)ccc1-2` [Compound 226], the Ki in data set [1] was under 99 nM. Moreover, the activation at 0.1 µM at GABAA receptors (α5β2γ2) was 20 to 49%.

In turn, `COCc1nnc2n1Cc1c(C3=NCCO3)ncn1-c1ccc(Cl)cc1-2` [Compound 238] gave a Ki in data set [1] of under 99 nM. The activation at 0.1 µM at GABAA receptors (α5β2γ2) is 20 to 49%.

As to `COCc1nnc2n1Cc1c(C3=NC(C)CO3)ncn1-c1ccc(Cl)cc1-2` (stereo not shown) [Compound 243], the Ki in data set [1] was under 99 nM. The activation at 0.1 µM on GABAA receptors (α5β2γ2) lay within 20 to 49%.

On to `COCc1nnc2n1Cc1c(-c3ncco3)ncn1-c1ccc(Cl)cc1-2` [Compound 249], for which the Ki in data set [1] is under 99 nM. In addition, at GABAA receptors (α5β2γ2), the activation at 0.1 µM was 20 to 49%.

Take `CCOCc1nnc2n1Cc1c(-c3nc(C(C)C)no3)ncn1-c1ccc(Cl)cc1-2` [Compound 254]: in data set [1], the Ki was under 99 nM. Moreover, the activation at 0.1 µM on GABAA receptors (α5β2γ2) lay within 20 to 49%.

Regarding `CCOCc1nnc2n1Cc1c(-c3nc(C)no3)ncn1-c1ccc(Cl)cc1-2` [Compound 255], the Ki in data set [1] was under 99 nM. Also, the activation at 0.1 µM at GABAA receptors (α5β2γ2) is 20 to 49%.

Take `C#Cc1ncn2c1Cn1c(COC)nnc1-c1cc(Cl)ccc1-2` [Compound 256]: the inhibition constant (Ki) in data set [1] was under 99 nM. Further, the activation at 0.1 µM on GABAA receptors (α5β2γ2) lay in the range of 20 to 49%.

For the molecule `COc1ccc2c(c1)-n1nncc1Cc1c(-c3nc(C(C)C)no3)ncn1-2` [Compound 257], in data set [1], the Ki is under 99 nM. On GABAA receptors (α5β2γ2), the activation at 0.1 µM fell in the range of 20 to 49%.

On to `COCc1nnc2n1Cc1c(C3=N[C@@H](c4ccccc4)CO3)ncn1-c1ccc(Cl)cc1-2` [Compound 264], for which, in data set [1], the Ki was under 99 nM. For the same molecule, the activation at 0.1 µM on GABAA receptors (α5β2γ2) was 20 to 49%.

Regarding `CCOCc1nnc2n1Cc1c(C3=N[C@H](c4ccccc4)CO3)ncn1-c1ccc(Cl)cc1-2` [Compound 271], the Ki in data set [1] was under 99 nM. The activation at 0.1 µM on GABAA receptors (α5β2γ2) was over 50%.

As for `COc1ccc2c(c1)-n1nncc1Cc1c(C3=N[C@H](c4ccccc4)CO3)ncn1-2` [Compound 290], in data set [1], the Ki is under 99 nM. Also, the activation at 0.1 µM on GABAA receptors (α5β2γ2) lay within 20 to 49%.

In turn, `COCc1nnc2n1Cc1c(C#Cc3ccccc3C)ncn1-c1ccc(Cl)cc1-2` [Compound 293] displayed a Ki in data set [1] of under 99 nM. The activation at 0.1 µM at GABAA receptors (α5β2γ2) was in the range of 20 to 49%.

`CCOC(=O)c1ncn2c1Cn1c(C)nnc1-c1cc(OC)ccc1-2` [Ethyl 3-methoxy-7-methyl-9H-benzo[f]imidazo[1,5-a][1,2,4]tri]: on GABAA α5 receptor (0.01-10 mg/kg, i.v.), the “effect on Ro 15-4513 binding in hippocampus and cerebellum” value is “blocked the binding of Ro154513 in the hippocampus but did not affect binding of Ro15413 in the cerebellum”.

`CCOC(=O)c1ncn2c1CN(C)C(=O)c1cc(N=[N+]=[N-])ccc1-2` [Ro 15-4513]: the “tracer level, hippocampus compared with cerebellum” value on GABAA α5 receptor (1 μg/kg, i.v. tracer after vehicle) is listed as over 5 fold.

Values taken from patent US11312721B2 (priority 2015, dated 2022).
